Data as given in patent publication US7863449B2, “Modulators of muscarinic receptors” (Vertex Pharmaceuticals Incorporated, priority 2004, dated 2011).

Tests used:
M1 muscarinic receptor = biological target: T1, M1 muscarinic receptor (Homo sapiens, UniProt P11229); assay: Functional mobilization of intracellular calcium (FLIPR), M1-CHO cells; assay type: cell-based; settings: for Emax: 100% efficacy is the maximum response obtained using Carbachol as a control; for M1 Activity: M1-CHO cells, FLIPR calcium mobilization
T1 construct: expressed in transfected cells; host or cells: CHO (M1-CHO)
T1 sequence (P11229 1-460): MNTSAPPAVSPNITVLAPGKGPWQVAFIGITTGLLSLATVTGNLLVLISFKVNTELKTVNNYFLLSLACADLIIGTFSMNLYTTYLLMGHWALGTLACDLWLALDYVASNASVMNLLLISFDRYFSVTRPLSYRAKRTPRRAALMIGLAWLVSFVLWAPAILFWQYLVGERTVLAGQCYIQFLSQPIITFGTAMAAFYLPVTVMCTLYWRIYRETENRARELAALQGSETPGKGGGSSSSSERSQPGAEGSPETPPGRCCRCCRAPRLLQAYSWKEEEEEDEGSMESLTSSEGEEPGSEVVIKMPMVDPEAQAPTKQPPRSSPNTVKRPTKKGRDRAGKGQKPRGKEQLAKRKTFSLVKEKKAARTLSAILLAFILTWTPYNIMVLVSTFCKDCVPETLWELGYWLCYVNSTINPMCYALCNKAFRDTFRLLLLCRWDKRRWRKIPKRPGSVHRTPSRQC
In short: (§1)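 CHO cells expressing M1 or M4, loaded with Fluo-3 AM or Calcium 3 dye with 1 mM probenecid, 0.5% DMSO final. Agonist mode: compound added directly; antagonist mode: 15 min pre-incubation (or co-application) before carbachol at EC80. Fluorescence recorded 60 s on FLIPR.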

M4 muscarinic receptor = biological target: T2, M4 muscarinic receptor (Homo sapiens, UniProt P08173); assay: Functional mobilization of intracellular calcium (FLIPR), M4-CHO cells; assay type: cell-based; settings: for Emax: 100% efficacy is the maximum response obtained using Carbachol as a control; for M4 Activity: M4-CHO cells, FLIPR calcium mobilization
T2 construct: expressed in transfected cells; host or cells: CHO (M4-CHO)
T2 sequence (P08173 1-479): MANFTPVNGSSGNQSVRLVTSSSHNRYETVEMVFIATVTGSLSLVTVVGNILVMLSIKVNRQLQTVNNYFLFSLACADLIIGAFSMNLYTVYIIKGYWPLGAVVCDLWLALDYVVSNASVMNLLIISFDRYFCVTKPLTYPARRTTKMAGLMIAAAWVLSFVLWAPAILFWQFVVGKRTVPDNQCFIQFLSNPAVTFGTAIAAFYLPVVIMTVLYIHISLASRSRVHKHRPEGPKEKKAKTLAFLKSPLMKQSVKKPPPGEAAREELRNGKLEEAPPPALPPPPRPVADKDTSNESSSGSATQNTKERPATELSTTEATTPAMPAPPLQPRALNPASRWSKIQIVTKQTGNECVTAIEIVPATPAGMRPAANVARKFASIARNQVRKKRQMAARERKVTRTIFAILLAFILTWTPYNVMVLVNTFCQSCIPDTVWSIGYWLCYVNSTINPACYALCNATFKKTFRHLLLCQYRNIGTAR
In short: as §1

Compound | Emax (M1 muscarinic receptor) | M1 Activity (M1 muscarinic receptor) | Emax (M4 muscarinic receptor) | M4 Activity (M4 muscarinic receptor)
COCCOC(=O)N1C2CCC1CC(N1CCC3(CC1)CN(C(C)=O)Cc1ccccc13)C2 (stereo not shown) [compound 90] | 25 to 100% | +++ (activity was measured to be less than 1.0 μM) | 25 to 100% | +++ (activity was measured to be less than 1.0 μM)
CC(=O)N1Cc2ccccc2C2(CCN(CC3CC4CCC3CC4)CC2)C1 (stereo not shown) [compound 94] | 25 to 100% | ++ (activity was measured to be from 1.0 μM to 5.0 μM) | 25 to 100% | +++ (activity was measured to be less than 1.0 μM)
CCOC(=O)N1C2CCC1CC(N1CCC3(CC1)CN(S(C)(=O)=O)Cc1ccccc13)C2 (stereo not shown) [compound 201] | 25 to 100% | +++ (activity was measured to be less than 1.0 μM) | 25 to 100% | +++ (activity was measured to be less than 1.0 μM)
CC(=O)N1Cc2ccccc2C2(CCN(CC3CCN(C(=O)OC4CCC4)CC3)CC2)C1 [compound 291] | < 25% | + (activity was measured to be greater than 5.0 μM) | < 25% | + (activity was measured to be greater than 5.0 μM)
CCOC(=O)N1CCC(CN2CCC3(CC2)CN(C(=O)OC)Cc2ccccc23)CC1 [compound 128] | 25 to 100% | +++ (activity was measured to be less than 1.0 μM) | 25 to 100% | +++ (activity was measured to be less than 1.0 μM)
CCOC(=O)N1CCC(CN2CCC3(CC2)CN(C(=O)c2nc(C)oc2C)Cc2ccccc23)CC1 [compound 275] | 25 to 100% | +++ (activity was measured to be less than 1.0 μM) | 25 to 100% | +++ (activity was measured to be less than 1.0 μM)
CCOC(=O)N1CCC(CN2CCC3(CC2)CN(C(=O)Nc2c(C)noc2C)Cc2ccccc23)CC1 [compound 171] | 25 to 100% | +++ (activity was measured to be less than 1.0 μM) | 25 to 100% | +++ (activity was measured to be less than 1.0 μM)
CCCNC(=O)N1Cc2ccccc2C2(CCN(C3CCN(C(=O)OCC)CC3)CC2)C1 [compound 296] | 25 to 100% | +++ (activity was measured to be less than 1.0 μM) | 25 to 100% | +++ (activity was measured to be less than 1.0 μM)
CCOC(=O)N1C2CCC1CC(N1CCC3(CC1)CN(C(=O)NC(C)C)Cc1ccccc13)C2 (stereo not shown) [compound 350] | 25 to 100% | +++ (activity was measured to be less than 1.0 μM) | 25 to 100% | +++ (activity was measured to be less than 1.0 μM)
CCOC(=O)N1CCC(N2CCC3(CC2)CN(C(=O)c2ccccn2)Cc2ccccc23)CC1 [compound 151] | 25 to 100% | +++ (activity was measured to be less than 1.0 μM) | 25 to 100% | +++ (activity was measured to be less than 1.0 μM)
CCOC(=O)N1C2CCC1CC(N1CCC3(CC1)CN(C(=O)CC(C)(C)C)Cc1ccccc13)C2 (stereo not shown) [compound 162] | 25 to 100% | +++ (activity was measured to be less than 1.0 μM) | 25 to 100% | +++ (activity was measured to be less than 1.0 μM)
O=C1NC2(CCN(CCC3CCSCC3)CC2)c2ccccc21 [compound 134] | < 25% | + (activity was measured to be greater than 5.0 μM) | < 25% | + (activity was measured to be greater than 5.0 μM)
O=C1NC2(CCN(CC3CCCCC3)CC2)c2ccccc21 [compound 54] | < 25% | + (activity was measured to be greater than 5.0 μM) | 25 to 100% | + (activity was measured to be greater than 5.0 μM)
CC(=O)N1Cc2ccccc2C2(CCN(C3CC4CCC(C3)N4C(=O)O[C@H]3CCOC3)CC2)C1 (stereo partly shown) [compound 354] | 25 to 100% | +++ (activity was measured to be less than 1.0 μM) | 25 to 100% | +++ (activity was measured to be less than 1.0 μM)
CCOC(=O)N1C2CCC1CC(N1CCC3(CC1)CN(S(=O)(=O)c1c(C)noc1C)Cc1ccccc13)C2 (stereo not shown) [compound 246] | 25 to 100% | +++ (activity was measured to be less than 1.0 μM) | > 100% | +++ (activity was measured to be less than 1.0 μM)
Cc1ccc2c(c1)C1(CCN(CC3CCOCC3)CC1)OC2=O [compound 41] | 25 to 100% | + (activity was measured to be greater than 5.0 μM) | < 25% | + (activity was measured to be greater than 5.0 μM)
CCOC(=O)N1CCC(CN2CCC3(CC2)CN(C(=O)C2CC2)Cc2ccccc23)CC1 [compound 208] | 25 to 100% | +++ (activity was measured to be less than 1.0 μM) | 25 to 100% | +++ (activity was measured to be less than 1.0 μM)
CCOC(=O)N1CCC(N2CCC3(CC2)CN(C(=O)N2CCCCC2)Cc2ccccc23)CC1 [compound 211] | 25 to 100% | +++ (activity was measured to be less than 1.0 μM) | < 25% | + (activity was measured to be greater than 5.0 μM)
CCOC(=O)N1CCC(N2CCC3(CC2)CN(C(=O)Nc2ccccc2)Cc2ccccc23)CC1 [compound 16] | 25 to 100% | +++ (activity was measured to be less than 1.0 μM) | 25 to 100% | +++ (activity was measured to be less than 1.0 μM)
CC(C)OC(=O)N1C2CCC1CC(N1CCC3(CC1)CN(S(=O)(=O)N(C)C)Cc1ccccc13)C2 (stereo not shown) [compound 241] | 25 to 100% | +++ (activity was measured to be less than 1.0 μM) | 25 to 100% | +++ (activity was measured to be less than 1.0 μM)
CC(=O)N1Cc2ccccc2C2(CCN(CC3CCN(C(=O)OC(C)C)CC3)CC2)C1 [compound 161] | 25 to 100% | ++ (activity was measured to be from 1.0 μM to 5.0 μM) | < 25% | +++ (activity was measured to be less than 1.0 μM)
CCOC(=O)N1CCC(N2CCC3(CC2)CN(Cc2ccccc2)Cc2ccccc23)CC1 [compound 167] | 25 to 100% | ++ (activity was measured to be from 1.0 μM to 5.0 μM) | < 25% | +++ (activity was measured to be less than 1.0 μM)
CC(=O)N1Cc2ccccc2C2(CCN(Cc3cccc(C)n3)CC2)C1 [compound 334] | < 25% | + (activity was measured to be greater than 5.0 μM) | < 25% | + (activity was measured to be greater than 5.0 μM)
CCOC(=O)N1C2CCC1CC(N1CCC3(CC1)CN(C(=O)OC(C)C)Cc1ccccc13)C2 (stereo not shown) [compound 8] | 25 to 100% | +++ (activity was measured to be less than 1.0 μM) | 25 to 100% | +++ (activity was measured to be less than 1.0 μM)
CCOC(=O)N1CCC(N2CCC3(CC2)CN(C(=O)OC)Cc2ccccc23)CC1 [compound 240] | 25 to 100% | +++ (activity was measured to be less than 1.0 μM) | 25 to 100% | +++ (activity was measured to be less than 1.0 μM)
CCOC(=O)N1CCC(N2CCC3(CC2)CN(C(=O)OC(C)C)Cc2ccccc23)CC1 [compound 166] | 25 to 100% | +++ (activity was measured to be less than 1.0 μM) | 25 to 100% | +++ (activity was measured to be less than 1.0 μM)
CCOC(=O)N1CCC(N2CCC3(CC2)CN(C(=O)C2(C)CC2)Cc2ccccc23)CC1 [compound 295] | 25 to 100% | ++ (activity was measured to be from 1.0 μM to 5.0 μM) | < 25% | ++ (activity was measured to be from 1.0 μM to 5.0 μM)
CCOC(=O)N1C2CCC1CC(N1CCC3(CC1)CN(C(=O)c1ccc(F)cc1)Cc1ccccc13)C2 (stereo not shown) [compound 71] | 25 to 100% | +++ (activity was measured to be less than 1.0 μM) | < 25% | + (activity was measured to be greater than 5.0 μM)
